Reference: BindingDB's records for doi:10.1080/14756360701536455 (Pcsir Laboratories Complex, 2008)
pIC50: −log10 of the molar value.

Legend:
[1] = target: Carboxylic ester hydrolase (Equus caballus, UniProt Q9N1N9); experiment: Cholinesterase Inhibition Assay; details: pH 8; 25 °C
Procedure: Butyrylcholinesterase activity-inhibiting activities were measured by a slightly modified spectrophotometric method developed by Ellman. DTNB was used for the measurement of cholinesterase activity and butyrylthiocholine chloride was used as a substrate.

[2] = target: T1, Seed linoleate 13S-lipoxygenase-1 (Glycine max, UniProt P08170); experiment: Lipoxygenase Inhibition Assay; details: pH 8; 25 °C
T1 sequence (P08170 whole entry): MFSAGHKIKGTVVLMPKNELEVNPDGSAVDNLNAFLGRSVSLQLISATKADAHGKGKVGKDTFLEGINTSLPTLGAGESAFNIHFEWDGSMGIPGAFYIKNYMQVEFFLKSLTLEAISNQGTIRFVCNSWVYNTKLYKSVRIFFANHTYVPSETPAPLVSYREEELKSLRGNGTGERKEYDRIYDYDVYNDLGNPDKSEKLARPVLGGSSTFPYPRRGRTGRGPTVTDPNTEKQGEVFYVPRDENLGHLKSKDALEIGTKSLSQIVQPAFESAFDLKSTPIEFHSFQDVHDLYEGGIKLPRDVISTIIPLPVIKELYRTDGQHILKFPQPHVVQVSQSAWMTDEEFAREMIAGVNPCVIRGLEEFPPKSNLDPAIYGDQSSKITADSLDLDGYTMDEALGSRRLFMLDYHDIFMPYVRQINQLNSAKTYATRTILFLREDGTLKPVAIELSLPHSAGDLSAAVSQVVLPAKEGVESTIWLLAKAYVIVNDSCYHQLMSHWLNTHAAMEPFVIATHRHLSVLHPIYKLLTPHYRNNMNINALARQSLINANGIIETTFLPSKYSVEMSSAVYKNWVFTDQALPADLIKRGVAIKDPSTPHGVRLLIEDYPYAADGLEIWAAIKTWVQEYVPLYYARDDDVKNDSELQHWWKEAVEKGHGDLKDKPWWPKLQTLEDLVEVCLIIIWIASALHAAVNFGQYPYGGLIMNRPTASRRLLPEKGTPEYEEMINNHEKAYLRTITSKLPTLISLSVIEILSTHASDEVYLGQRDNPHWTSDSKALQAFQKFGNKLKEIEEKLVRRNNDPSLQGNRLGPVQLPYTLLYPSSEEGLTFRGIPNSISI
Procedure: LOX inhibiting activity was measured by modifying the spectrophotometric method developed by Tappel.

Sequence of Carboxylic ester hydrolase (Q9N1N9 whole entry): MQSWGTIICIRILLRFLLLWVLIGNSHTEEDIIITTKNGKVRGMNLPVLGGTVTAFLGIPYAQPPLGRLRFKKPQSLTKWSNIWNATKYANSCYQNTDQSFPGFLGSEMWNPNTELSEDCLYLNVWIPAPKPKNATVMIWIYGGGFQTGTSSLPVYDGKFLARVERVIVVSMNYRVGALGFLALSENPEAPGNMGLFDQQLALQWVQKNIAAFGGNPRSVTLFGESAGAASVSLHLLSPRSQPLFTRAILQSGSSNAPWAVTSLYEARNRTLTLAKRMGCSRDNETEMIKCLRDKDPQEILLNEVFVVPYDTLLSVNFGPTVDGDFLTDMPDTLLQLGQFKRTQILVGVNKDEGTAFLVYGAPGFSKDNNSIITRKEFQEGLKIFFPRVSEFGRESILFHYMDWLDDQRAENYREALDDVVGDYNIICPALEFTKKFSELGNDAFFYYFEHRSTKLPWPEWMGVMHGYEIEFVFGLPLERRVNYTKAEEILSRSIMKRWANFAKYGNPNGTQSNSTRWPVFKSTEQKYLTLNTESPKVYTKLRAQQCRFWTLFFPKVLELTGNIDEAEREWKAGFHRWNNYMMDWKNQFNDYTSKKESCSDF

Structure (SMILES) | pIC50 [1] | pIC50 [2]
C=CC(CC(=NOS(=O)(=O)O)SC1OC(CO)C(O)C(O)C1O)OC(=O)CC1(O)C(=O)Nc2ccccc21 (stereo not drawn) [3'-Hydroxyepiglucoisatisin, 3] | 4.79 | 4.51
O=C1C(O)C(CO)OC(Oc2c[nH]c3ccccc23)C1O (stereo not drawn) [Isatan B, 6] | 4.32 | 4.27
C=CC(CC(=NOS(=O)(=O)O)SC1OC(CO)C(O)C(O)C1O)OC(=O)CC1C(=O)Nc2ccccc21 (stereo not drawn) [Epiglucoisatisin, 2] | 4.71 | 4.47
O=S(=O)(O)ON=C(Cc1cc2ccccc2n1S(=O)(=O)O)SC1OC(CO)C(O)C(O)C1O (stereo not drawn) [Sulfoglucobrassicin, 4] | 4.61 | 4.38
O=C(O)CC(=O)OCC1OC(Oc2c[nH]c3ccccc23)C(O)C(=O)C1O (stereo not drawn) [Isatan A, 5] | 4.36 | 4.31
N#CC(=C1Nc2ccccc2C1=O)c1c[nH]c2ccccc12 [2-[Cyano(3-indolyl)methylene]-3-indolone, 1] | 4.63 | 4.41
COc1ccc2c3c1O[C@H]1C[C@@H](O)C=C(CN(C)C2)[C@H]31 [Galanthamine, 7] | 5.07 | –
